# Read-outs that look alike come from different tables or passages of the source.
# Key:
# HT22 cells = experiment: Viability of HT22 cells with LPS but without BV2 microglia; type: cell-based; details: 1.7 μM, presence or absence of LPS (200 ng/ml, 96 h)
# Description: This testing was performed to test the ability of compounds to alleviate the injury of HT22 cells induced by LPS activated BV2 cells. The testing was performed according to the following procedure: 1) Microglia BV2 cells were co-cultured on transwell inserts with HT22hippocampal neurons. BV2 cells were stimulated with LPS (200 ng/ml) for 96 h after treatment with a compound of Formula (II) at 1.7 μM. 2) HT22 cells were pre-treated with a compound of Formula (II) at 1.7 μM for 30 min and subsequently stimulated with LPS (200 ng/ml) for 96 h. 3) BV2 cells were treated using LPS. IL-6, TNF and MCP-1 productions were measured in cell supernatants using CBA assay.
# The protective effects of a compound of Formula (II) on microglial activation-induced neuronal death were evaluated in a BV2 microglia/HT22 neuron co-culture. Following stimulation of BV2 microglia with LPS (200 ng/mL), there was a marked reduction in the viability of co-cultured HT22 cells.
# TYK2 [1] = target: T1, TYK2 (Homo sapiens, UniProt P29597); experiment: TYK2 cellular ELISA assay using NK92 cells (IL-12 and IL-18 stimulated IFNγ excretion); type: cell-based; details: IL-12 2 ng/ml, IL-18 5 ng/ml, 24 hours
# T1 construct: purchased Reaction Biology Corp, Malvern, PA (contract testing)
# Description: This testing was performed to test cellular TYK2 activity using IL-12 and IL-18 stimulated IFNγ excretion assay in NK92 cells. The testing was performed according to the following procedure: 1) Replace NK92 cell media containing IL-2 with media not containing IL-2, maintain overnight; 2) Plate NK92 cells to 96-well plate at density of ˜150,000 cell/well; 3) Add different concentrations of test article to wells, maintain in incubator at 37° C. and 5% CO2 for 1 hour; 4) Add IL-12 (final concentration: 2 ng/ml) and IL-18 (final concentration: 5 ng/ml) to stimulate for 24 hours in the above incubator; 5) After 24 hours, centrifuge at 2000 rpm for 5 min, take the supernatant and analyze according to instructions of the ELISA kit. In this assay, compounds of Formulae (II) and (III) had IC50<100 nM.
# JAK1 = target: T2, JAK1 (Homo sapiens, UniProt P23458); experiment: JAK1 cellular ELISA assay using PBMC cells (IL-6 stimulated STAT3 phosphorylation); type: cell-based; details: IL-6 100 ng/ml, 25 min
# T2 construct: purchased Reaction Biology Corp, Malvern, PA (contract testing)
# Description: This testing was performed to test cellular JAK1 activity using the IL-6 stimulated STAT3 phosphorylation assay in PBMC cells. The testing was performed according to the following procedure: 1) Plate PBMC cells to 96-well plate at density of ˜300,000 cell/well; 2) Add different concentrations of test article to wells, maintain in incubator at 37° C. and 5% CO2 for 1 hour; 3) Add IL-6 (final concentration: 100 ng/ml) to stimulate for 25 min in the above incubator; 4) After stimulation, transfer the suspension to 1.5 mL tube, centrifuge at 200 g for 5 min, collect cells, add 100 μL 1× lysate, lyse on ice for 1 hour; 5) Centrifuge at 4° C. and 12000 rpm for 10 min, take the supernatant and analyze according to instructions of the ELISA kit. In this assay, compounds of Formulae (II) and (III) had IC50<300 nM.
# [2] = Brain penetration in rats; type: in vivo; details: male, rat, 10 mg/kg oral gavage, 8 hour post-dosing
# Description: This testing was performed to test the ability of compounds to penetrate the blood-brain-barrier in rats. The testing was performed according to the following procedure: 1) For each compound, take 3 male rats with body weight of 217-228 g, formulate compound using 0.5% HPMC/water suspension at concentration of 1 mg/ml; 2) After fasting overnight, administer compound at 10 mg/kg by oral gavage; 3) Take plasma samples at 1, 2, 4, 8 hours post-dosing; 4) At 8 hour post-dosing, also take brain tissues and cerebrospinal fluid (CSF); 5) Analyze compound concentration in plasma, brain tissue, and CSF using LC-MS/MS method.
# TYK2 [3] = target: T1, TYK2; experiment: TYK2 biochemical test (33P-ATP filter binding, Reaction Biology); details: read-out: Inhibition of TYK2 (IC50)
# Description: The tests were conducted by Reaction Biology Corp, Malvern, PA (Anastassiadis et al. Nat Biotechnol. 2011; 29(11):1039-45). The step is briefly described as follows, using the basic reaction buffer: 20 mM Hepes (pH 7.5), 10 mM MgCl2, 1 mM EGTA, 0.02% Brij35, 0.02 mg/ml BSA, 0.1 mM Na3VO4, 2 mM DTT and 1% DMSO. The required cofactor was added to each kinase reaction respectively. Each reaction was performed according to the following reaction steps: 1) Preparing the designated substrate in the newly prepared basic reaction buffer; 2) Transferring the required cofactor to the above matrix solution; 3) Transferring the designated kinase to the substrate solution and mixing well slightly; 4) Transferring a compound of Formula (I) in DMSO to the kinase reaction mixture with Acoustic technique (Echo550; nanoliter range), culturing for 20 minutes at room temperature; 5) Introducing ^33P-ATP (specific activity: 10 μCi/μl) to the reaction mixture to trigger a reaction; 6) Culturing at room temperature and conducting a kinase reaction for 2 hours; 7) Plotting the reaction on P81 ion exchange paper; and 8) Testing the kinase activity with a filter binding assay. The results shown in Table 1 indicate that compounds of Formulae (I)-(III) are potent and selective TYK2/JAK1 inhibitors.
# T1 sequence (P29597 whole entry): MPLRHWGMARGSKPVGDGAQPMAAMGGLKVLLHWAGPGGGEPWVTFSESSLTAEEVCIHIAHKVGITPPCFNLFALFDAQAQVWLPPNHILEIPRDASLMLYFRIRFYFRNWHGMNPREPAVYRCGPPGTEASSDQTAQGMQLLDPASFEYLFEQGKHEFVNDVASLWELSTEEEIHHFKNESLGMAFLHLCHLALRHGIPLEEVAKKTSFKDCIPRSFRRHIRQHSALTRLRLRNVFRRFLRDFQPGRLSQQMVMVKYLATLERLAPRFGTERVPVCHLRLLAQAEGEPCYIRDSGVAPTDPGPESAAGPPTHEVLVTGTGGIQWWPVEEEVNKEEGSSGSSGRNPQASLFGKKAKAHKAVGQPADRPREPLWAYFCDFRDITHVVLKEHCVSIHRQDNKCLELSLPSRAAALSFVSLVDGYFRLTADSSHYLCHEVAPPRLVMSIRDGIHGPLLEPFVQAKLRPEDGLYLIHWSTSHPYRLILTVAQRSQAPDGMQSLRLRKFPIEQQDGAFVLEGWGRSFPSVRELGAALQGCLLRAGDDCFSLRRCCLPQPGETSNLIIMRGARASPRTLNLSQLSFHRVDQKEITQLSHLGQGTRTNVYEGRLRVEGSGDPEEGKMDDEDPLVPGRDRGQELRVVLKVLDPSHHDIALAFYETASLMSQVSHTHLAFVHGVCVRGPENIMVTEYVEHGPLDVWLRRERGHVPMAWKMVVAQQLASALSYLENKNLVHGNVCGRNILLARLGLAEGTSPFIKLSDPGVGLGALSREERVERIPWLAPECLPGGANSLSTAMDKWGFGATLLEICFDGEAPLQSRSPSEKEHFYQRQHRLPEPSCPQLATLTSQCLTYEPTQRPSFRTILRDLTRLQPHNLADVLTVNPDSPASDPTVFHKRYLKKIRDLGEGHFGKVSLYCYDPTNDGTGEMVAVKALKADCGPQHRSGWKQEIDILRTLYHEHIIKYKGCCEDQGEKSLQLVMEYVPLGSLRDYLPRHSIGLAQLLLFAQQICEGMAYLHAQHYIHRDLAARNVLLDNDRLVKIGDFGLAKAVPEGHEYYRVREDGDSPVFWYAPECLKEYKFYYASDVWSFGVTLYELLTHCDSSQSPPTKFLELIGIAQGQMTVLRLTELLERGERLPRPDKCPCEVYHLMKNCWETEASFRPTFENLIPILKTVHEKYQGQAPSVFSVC
# T2 sequence (P23458 whole entry): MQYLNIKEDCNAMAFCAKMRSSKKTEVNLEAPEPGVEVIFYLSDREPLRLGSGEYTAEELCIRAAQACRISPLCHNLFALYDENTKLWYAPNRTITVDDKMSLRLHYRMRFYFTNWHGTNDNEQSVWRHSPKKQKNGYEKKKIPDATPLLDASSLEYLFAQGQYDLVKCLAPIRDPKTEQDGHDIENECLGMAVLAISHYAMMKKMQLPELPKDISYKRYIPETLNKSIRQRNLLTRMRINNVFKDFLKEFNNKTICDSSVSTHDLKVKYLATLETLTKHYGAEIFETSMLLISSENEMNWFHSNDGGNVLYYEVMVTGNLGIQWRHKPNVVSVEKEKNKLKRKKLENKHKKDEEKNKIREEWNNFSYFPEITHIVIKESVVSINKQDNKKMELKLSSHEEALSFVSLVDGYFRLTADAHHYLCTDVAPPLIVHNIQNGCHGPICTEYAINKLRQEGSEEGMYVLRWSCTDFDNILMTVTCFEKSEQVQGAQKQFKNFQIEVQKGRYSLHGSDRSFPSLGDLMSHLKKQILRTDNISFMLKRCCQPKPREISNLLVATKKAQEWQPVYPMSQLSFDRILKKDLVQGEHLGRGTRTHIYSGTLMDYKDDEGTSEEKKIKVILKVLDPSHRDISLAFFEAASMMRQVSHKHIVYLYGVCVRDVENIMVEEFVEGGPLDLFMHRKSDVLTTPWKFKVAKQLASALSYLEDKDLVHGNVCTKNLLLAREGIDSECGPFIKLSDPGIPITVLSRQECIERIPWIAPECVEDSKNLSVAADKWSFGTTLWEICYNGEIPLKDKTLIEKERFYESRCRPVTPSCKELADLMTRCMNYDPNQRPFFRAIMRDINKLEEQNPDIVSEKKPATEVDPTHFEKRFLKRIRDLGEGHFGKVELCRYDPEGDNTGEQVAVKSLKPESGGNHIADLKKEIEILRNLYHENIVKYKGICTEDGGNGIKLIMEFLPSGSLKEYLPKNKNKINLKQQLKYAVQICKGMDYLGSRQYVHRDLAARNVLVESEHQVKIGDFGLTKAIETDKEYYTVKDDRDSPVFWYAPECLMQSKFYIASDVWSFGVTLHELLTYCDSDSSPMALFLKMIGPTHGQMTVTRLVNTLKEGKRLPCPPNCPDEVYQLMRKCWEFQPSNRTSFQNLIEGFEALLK
compound,measurement,setting,value
Cc1nc2cnc3ccoc3c2n1[C@H]1CC[C@H](CC#N)OC1 [Formula (II)],Viability of HT22 cells,HT22 cells,did not affect the viability
same,IC50,TYK2 [1],< 100 nM
same,IC50,JAK1,< 300 nM
same,Kp at 8 h,"[2]; CSF/plasma, read-out: CSF (ng/ml)/ Plasma (ng/ml)",> 0.15
same,Kp at 8 h,"[2]; brain/plasma, read-out: Brain (ng/ml)/ Plasma (ng/ml)",> 0.4
same,IC50,TYK2 [3],< 10 nM
